Source: PubChem BioAssay AID179 (DTP/NCI, 2004)
Activity calls are given as the source filed them.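 Rule for the calls: active = compounds giving half or more protection of infected cells from virus-caused growth loss, again on retest; inactive = the rest.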 Where a SMILES comes first, the peptide text is derived from it. [ ]: non-standard residue; d: D form. The star is where a group is joined. ξ: configuration not given here. X19 = O=C(OCc1ccccc1)[C@H]1CCC[C@H]1N*; ξW = NC(Cc1c[nH]c2ccccc12)C(=O)O; ξF = NC(Cc1ccccc1)C(=O)O; Cbz = O=C(OCc1ccccc1)*; Boc = CC(C)(C)OC(=O)*; ξK = NCCCCC(N)C(=O)O; ξT = CC(O)C(N)C(=O)O; tBu = CC(C)(C)*

Test system: CEM cells HIV-1 protection, formazan growth assay
Assay: NCI AIDS Antiviral Assay
Details: for IC50: measured here: growth of uninfected CEM cells
Summary of the method: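 Protection of CEM cells against HIV-1 was scored from cell growth (soluble formazan) across five concentrations, with parallel uninfected cells. Lack of protection may reflect toxicity.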

Row | Compound | EC50 | IC50 | outcome
1 | Sc1ccc2ccccc2c1CN1CCOCC1 | > 87.1 µM | 32.4 µM | 
2 | CC(=O)Cc1cc(=O)c2c(C)cc(O)c(C3OC(CO)C(O)C(O)C3O)c2o1 (stereo unspecified) | 31.6 µM | 316 µM | 
3 | CC1=CC(C)(C)Nc2ccccc2N1 | > 200 µM | > 200 µM | 
4 | Cn1c(=O)nc2n(CCO)ccnc-2c1=O | > 100 µM | > 100 µM | 
5 | CCN(CC)CCCn1c(=O)c2ccccc2n2c3c(=O)n(C)c(=O)n(C)c3nc12 | > 200 µM | 1.05 µM | 
6 | Nc1nc(Cl)cc(NCCCCCCCCCCNc2cc(Cl)nc(N)n2)n1 |  |  | inactive
7 | Nc1ncnc2c1ncn2C1CCC(CP(=O)(O)O)C1 (stereo unspecified) | > 200 µM | > 200 µM | 
8 | [O-]c1c(-c2ccccc2)[se]c(-c2ccccc2)[n+]1-c1ccccc1 |  |  | inactive
9 | N#Cc1ccc(Oc2cccc(N)c2)cc1C#N | > 214 µM | > 214 µM | 
10 | CN1C(CCl)Nc2cc(Cl)c(S(N)(=O)=O)cc2S1(=O)=O (stereo unspecified) | > 363 µM | 64.6 µM | 
11 | CCOC(=O)C(=Cc1ccc(N(C)C)cc1)C(=O)OCC | > 89.1 µM | 46.8 µM | 
12 | CCCCCCCCCCCCCCCCOP(=O)(O)Oc1ccc(/C=C\c2ccc(OP(=O)(O)OCCCCCCCCCCCCCCCC)cc2)cc1 |  |  | inactive
13 | Cc1ccc(S(=O)(=O)Nn2c(-c3ccccc3)c(C#N)c(-c3ccc([N+](=O)[O-])cc3)c(C#N)c2=O)cc1 | > 200 µM | 56.2 µM | 
14 | CC(C)(C)OC(=O)NC(Cc1cnc[nH]1)C(=O)N1CCCC1C(N)=O (stereo unspecified) | > 200 µM | > 200 µM | 
15 | NS(=O)(=O)c1ccc(SSc2ccc(S(N)(=O)=O)cc2[N+](=O)[O-])c([N+](=O)[O-])c1 | 30.9 µM | 195 µM | 
16 | CC[As](CC)SCC1OC(OC(C)=O)C(OC(C)=O)C(OC(C)=O)C1OC(C)=O (stereo unspecified) | > 191 µM | 4.57 µM | 
17 | O=C(OC1CCC2OOC1O2)c1ccc([N+](=O)[O-])cc1 (stereo unspecified) |  |  | inactive
18 | COC1OC(CO)C(O)C(OC(C)=O)C1NC(=O)N(CCCl)N=O (stereo unspecified) | > 676 µM | 417 µM | 
19 | CCOC(=O)Cc1nc2c(=O)[nH]cnc2n1C1OC(COC(C)=O)C(OC(C)=O)C1OC(C)=O (stereo unspecified) | > 200 µM | > 200 µM | 
20 | CCOC(=O)c1c(N2CCCC2)nsc1Nc1ccc(F)cc1 | > 200 µM | 23.4 µM | 
21 | C1=NCCNCCN=Cc2ccccc2OCc2cccc(n2)COc2ccccc21 | > 200 µM | 10.7 µM | 

Row | Compound | EC50 | IC50 | outcome
22 | Nc1cc(F)c2cccnc2c1O | > 200 µM | 11.7 µM | 
23 | C/C(=N\NC(=S)NCCCNC(=S)N/N=C(\C)c1ccccn1)c1ccccn1 | > 200 µM | 3.16 µM | 
24 | CSC1=NC=C(C#N)C2=NC(c3cccs3)NN12 (stereo unspecified) | > 339 µM | 20.4 µM | 
25 | O=C(CC1Sc2ccccc2NC1=O)Nc1ccc([N+](=O)[O-])cc1[N+](=O)[O-] (stereo unspecified) | > 67.6 µM | > 67.6 µM | 
26 | Cc1ccc2ccccc2c1CSc1ncnc2c1ncn2C1OC(CO)C(O)C1O (stereo unspecified) | > 200 µM | 24.5 µM | 
27 | N=Nc1c2ccccc2c2nc3c(N)[nH]nc(N)c3nc12 | > 45.7 µM | 28.8 µM | 
28 | C=CCN(CC=C)C(=O)COc1cc2c(O)c3c(O)c(C)c4c(c13)C(=O)C(C)(O/C=C\C(OC)C(C)C(OC(C)=O)C(C)C(O)C(C)C(O)C(C)/C=C\C=C(\C)C(=O)N2)O4 (stereo unspecified) | > 200 µM | 17 µM | 
29 | Cc1ccc(S(=O)(=O)n2c3c(c4ccccc42)CCN2CCC(Br)C[C@@H]32)cc1 (stereo partly specified) | > 200 µM | 20.9 µM | 
30 | O=C(O)c1ccc(-c2ccc(C(=C(F)F)C(F)(F)F)cc2)cc1 |  |  | inactive
31 | CCOC(=O)C1=C(Nc2ccccc2)OC/C1=N\NC(=O)Cc1ccccc1 | > 46.8 µM | > 46.8 µM | 
32 | CS(=O)(=O)Oc1cccc(/C=N/N=C(\N)NO)c1 | > 214 µM | 36.3 µM | 
33 | COc1ccc(-c2c3ccccc3c(-c3ccc(OC)cc3)c3ccccc23)cc1 | > 2.69 µM | > 2.69 µM | 
34 | Cc1cc(N(CCC#N)CCC#N)ccc1/C=N/NC(=O)c1ccccc1 | > 200 µM | 7.41 µM | 
35 | CN(CC1(CO)CCC1)c1cc(Cl)nc(N)n1 | > 200 µM | 53.7 µM | 
36 | COC(=O)C1C2OC(C)(C)OC2CN1S(=O)(=O)c1ccc(C)cc1 (stereo unspecified) |  |  | inactive
37 | CN(N)c1cnn(-c2ccccc2)c(=O)c1Cl | > 200 µM | > 200 µM | 
38 | Cc1ccc(S(=O)(=O)Sc2nnnn2-c2ccccc2)cc1 | > 15.8 µM | > 15.8 µM | 
39 | C[C@H]1C[C@H]2[C@@H]3CCC4=CC(=O)C=C[C@]4(C)[C@@]3(F)[C@@H](O)C[C@]2(C)C1=O |  |  | inactive
40 | Nc1ncnc2c1ncn2C1OC(CO)C2NP(=O)(N(CCCl)CCCl)OC21 (stereo unspecified) | > 200 µM | > 200 µM | inactive
41 | O=c1[nH]c2ccccc2c(O)c1N=Nc1ccc(N=Nc2ccc(S(=O)(=O)O)cc2)cc1 | > 200 µM | > 200 µM | 
42 | CC(O)c1nc(C#N)c(N)o1 (stereo unspecified) | 3.31 µM | > 200 µM | 

Row | Compound | EC50 | IC50 | outcome
43 | O=C1CCSC(=O)N1c1ccccc1 | > 200 µM | > 200 µM | 
44 | CC(C)C(O)C(=O)C(F)C(C)C (stereo unspecified) | > 1410 µM | > 1410 µM | 
45 | C(=N/NC1=NCCN1)/c1c2ccccc2c(/C=N\NC2=NCCN2)c2ccccc12 | > 1.07 µM | 0.0363 µM | 
46 | O=[N+]([O-])c1ccc2nc(/C=C(\O)c3ccccc3)c(NC34CC5CC(CC(C5)C3)C4)nc2c1 | > 200 µM | 182 µM | 
47 | COc1c2c(c3c(c1C1OC(C)[C@@H](C)O1)CC(C)(C)O3)C(=O)c1ccccc1C2=O (stereo partly specified) | > 63.1 µM | > 63.1 µM | 
48 | CCCCC1(C(NC(=O)c2ccccc2Cl)c2ccncc2)C(=O)N(c2ccccc2)N(c2ccccc2)C1=O (stereo unspecified) |  |  | inactive
49 | CSCCC(NCc1c(O)ccc2ccc(=O)oc12)C(=O)O (stereo unspecified) | > 200 µM | > 200 µM | 
50 | OCCSCC/C(=N\N=C(/CCSCCO)c1ccccc1)c1ccccc1 | > 87.1 µM | 34.7 µM | 
51 | COCc1cc(=O)oc2c3c(c4c(c12)OC(C)(C)C=C4)O[C@H](C)[C@@H](C)[C@H]3O | 174 µM | 182 µM | 
52 | O=S(=O)(NCCSSCCNS(=O)(=O)c1cccs1)c1cccs1 | > 200 µM | 20 µM | 
53 | COc1ccc(N(C)CN(C)c2nc(N(C)C)nc(N(C)C)n2)cc1 | > 200 µM | 36.3 µM | 
54 | O=c1c2c(-c3ccccc3)c3ccccc3nc2cnn1-c1ccccc1 | > 79.4 µM | > 79.4 µM | 
55 | CCC[CH2][Sn]1([CH2]CCC)[O]CC([CH2][Sn]([c]2ccccc2)([c]2ccccc2)[c]2ccccc2)[O]1 (stereo unspecified) | > 3.98 µM | 0.0234 µM | 
56 | CCOC(=O)[C@H]1Nc2c(cccc2[N+](=O)[O-])C2c3ccccc3CC21 (stereo partly specified) | > 15.5 µM | > 15.5 µM | 
57 | COC(=O)C1(C)CC(c2ccccc2)=NC1c1ccccc1 (stereo unspecified) | > 123 µM | > 123 µM | 
58 | CC(C)(/C=N/O)/[N+]([O-])=C/c1ccccc1 | > 200 µM | > 200 µM | 
59 | CC(OC(C)(C)C)C(NC(=O)C(CCCCNC(=O)OC(C)(C)C)NC(=O)C(Cc1c[nH]c2ccccc12)NC(=O)C(Cc1ccccc1)NC(=O)OCc1ccccc1)C(=O)NC(Cc1ccccc1)C(=O)N[C@@H]1CCC[C@@H]1C(=O)OCc1ccccc1 (stereo partly specified) (Cbz-[ξF][ξW][ξK](Boc)[ξT](tBu)[ξF]-X19) |  |  | inactive
60 | Nc1ncnc2c1nnn2C1C=CC(CP(=O)(O)O)C1 (stereo unspecified) | > 200 µM | > 200 µM | 
61 | COC(=O)/C=C(/C(=O)OC)C1(C)c2cc(C(=O)OC)c(C(=O)OC)c(N)c2C(=N)N1c1ccccc1 (stereo unspecified) |  |  | inactive
62 | O=c1[nH]nnc2c1cnn2C1CCCO1 (stereo unspecified) |  |  | inactive
63 | C[C@@H](NS(=O)(=O)c1ccc(NC(=O)c2ccccc2)cc1)C(=O)O |  |  | inactive

Row | Compound | EC50 | IC50 | outcome
64 | CC(=O)NC(C=O)C(O[C@H](C)C(=O)NC(C)C(=O)NC(CCC(N)=O)C(=O)OCc1ccccc1)C(O)C(O)COC(=O)CCCCCNc1cccc2[nH]c3ccccc3c(=O)c12 (stereo partly specified) | > 204 µM | 126 µM | 
65 | O=C1Cc2ccccc2CCc2ccccc21 | 135 µM | > 200 µM | 
66 | S=C1Cc2c(-c3ccccc3)cc(-c3cccc(Cl)c3)nc2-c2ccccc2N1 |  |  | inactive
67 | COC(=O)N/N=C(\Cc1ccccc1)CN(C)C | > 200 µM | > 200 µM | 
68 | [N-]=[N+]=NC1=C(c2ccccn2)C(=O)c2cccc3cccc1c23 | > 200 µM | 4.17 µM | 
69 | CCCNC1=C2C[C@@H](C)C[C@@H](OC)[C@@H](OC(=O)CCCN)[C@H](C)/C=C(\C)[C@@H](OC(N)=O)[C@H](OC)/C=C\C=C(/C)C(=O)NC(=CC1=O)C2=O | > 200 µM | 11.5 µM | 
70 | Cc1ccc(S(=O)(=O)Nc2ccccc2SSc2ccccc2NS(=O)(=O)c2ccc(C)cc2)cc1 | > 200 µM | 4.57 µM | 
71 | N#C/C(=C/c1cccs1)c1cccs1 | > 200 µM | > 200 µM | 
72 | C/C(=N/NC(=S)Nc1ccccc1Cl)c1ccccn1 | > 0.2 µM | 0.0372 µM | 
73 | C[C@]12CC[C@H](O)CC1=CC[C@@H]1C2CC[C@@]2(C)C1CC[C@@H]2c1nc(-c2ccccc2)cs1 (stereo partly specified) | > 15.5 µM | > 15.5 µM | 
74 | O=C1OC(=O)N2CSCC12 (stereo unspecified) | > 1580 µM | > 1580 µM | 
75 | CC(C)(C)c1cc(/C=C2\CCC/C(=C\c3cc(C(C)(C)C)c(O)c(C(C)(C)C)c3)C2=O)cc(C(C)(C)C)c1O | > 200 µM | > 200 µM | 
76 | O=C1/C(=C\c2c(-c3ccccc3)nn(-c3ccccc3)c2O)C(c2ccccc2)=NN1c1ccccc1 | > 100 µM | > 100 µM | 
77 | CCCCCCCCCCCC(=O)c1c(O)cccc1O | > 17.8 µM | 15.5 µM | 
78 | CCOC(=O)c1c(NC(=S)Nc2ccc(C)cc2)sc2c1CCN(C)C2 | > 200 µM | > 200 µM | 
79 | CCN(CC)CCn1ccc(=O)c2cc3c(=O)ccn(CCN(CC)CC)c3c(C)c21 | > 17 µM | 0.676 µM | 
80 | C[CH2][Sn]([CH2]C)([O]C(=O)c1cc(OC)c(OC)c(OC)c1)[O][Sn]([CH2]C)([CH2]C)[O]C(=O)c1cc(OC)c(OC)c(OC)c1 | > 6.61 µM | > 6.61 µM | 
81 | COc1ccc2c(c1)OCC1Cc3ccccc3OC21 (stereo unspecified) | > 200 µM | 53.7 µM | 
82 | CC(=O)c1cc2cc3c4c(c2oc1=O)CCCN4CCC3 | > 25.7 µM | > 25.7 µM | 
83 | Cc1cc2c(c3c1c1ccccc1n3C)C(=O)c1ccccc1C2=O | > 1.7 µM | > 1.7 µM | 
84 | O=c1n(CC2CO2)c2ccccc2n1CC1CS1 (stereo unspecified) | > 692 µM | 12.9 µM | 
